Measured values reported in paper PMC5812813 (Journal of the American Chemical Society, 2018).
Like-named read-outs stand apart in the source and are kept apart here.

Columns and labels:
CYP1A [1] = target: T1, CYP1A (Homo sapiens, UniProt P05177); conditions: cited from earlier work
T1 sequence (P05177 1-516): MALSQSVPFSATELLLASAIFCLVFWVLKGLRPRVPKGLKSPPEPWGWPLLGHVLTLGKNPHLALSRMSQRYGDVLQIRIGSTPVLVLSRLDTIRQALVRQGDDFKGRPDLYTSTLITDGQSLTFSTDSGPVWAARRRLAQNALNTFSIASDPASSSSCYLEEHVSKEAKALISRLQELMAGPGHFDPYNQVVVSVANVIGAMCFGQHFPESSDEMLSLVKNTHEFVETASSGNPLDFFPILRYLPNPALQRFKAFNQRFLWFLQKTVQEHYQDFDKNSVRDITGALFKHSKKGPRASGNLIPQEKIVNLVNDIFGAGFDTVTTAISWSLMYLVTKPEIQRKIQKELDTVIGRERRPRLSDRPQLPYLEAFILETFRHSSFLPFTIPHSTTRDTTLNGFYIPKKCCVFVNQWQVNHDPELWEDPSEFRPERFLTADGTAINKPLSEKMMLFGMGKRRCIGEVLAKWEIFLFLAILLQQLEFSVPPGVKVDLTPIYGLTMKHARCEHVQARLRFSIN

[2] = target: T2, aspartate aminotransferase (Asp-AT) (Sus scrofa, UniProt P00503); conditions: cited from earlier work
T2 sequence (P00503 2-413): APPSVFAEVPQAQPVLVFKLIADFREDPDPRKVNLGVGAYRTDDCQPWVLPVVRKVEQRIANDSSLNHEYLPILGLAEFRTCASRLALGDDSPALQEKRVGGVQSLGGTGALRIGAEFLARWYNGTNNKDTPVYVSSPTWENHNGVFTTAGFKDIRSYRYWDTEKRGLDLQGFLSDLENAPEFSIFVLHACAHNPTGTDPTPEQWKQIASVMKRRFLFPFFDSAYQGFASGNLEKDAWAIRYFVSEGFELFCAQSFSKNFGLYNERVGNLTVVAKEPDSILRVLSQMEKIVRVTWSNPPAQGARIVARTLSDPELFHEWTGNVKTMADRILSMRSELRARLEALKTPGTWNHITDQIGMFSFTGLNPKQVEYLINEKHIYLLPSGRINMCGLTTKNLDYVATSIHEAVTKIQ

CYP2B6 [3] = target: T3, CYP2B6 (Homo sapiens, UniProt P20813); conditions: cited from earlier work
T3 sequence (P20813 1-491): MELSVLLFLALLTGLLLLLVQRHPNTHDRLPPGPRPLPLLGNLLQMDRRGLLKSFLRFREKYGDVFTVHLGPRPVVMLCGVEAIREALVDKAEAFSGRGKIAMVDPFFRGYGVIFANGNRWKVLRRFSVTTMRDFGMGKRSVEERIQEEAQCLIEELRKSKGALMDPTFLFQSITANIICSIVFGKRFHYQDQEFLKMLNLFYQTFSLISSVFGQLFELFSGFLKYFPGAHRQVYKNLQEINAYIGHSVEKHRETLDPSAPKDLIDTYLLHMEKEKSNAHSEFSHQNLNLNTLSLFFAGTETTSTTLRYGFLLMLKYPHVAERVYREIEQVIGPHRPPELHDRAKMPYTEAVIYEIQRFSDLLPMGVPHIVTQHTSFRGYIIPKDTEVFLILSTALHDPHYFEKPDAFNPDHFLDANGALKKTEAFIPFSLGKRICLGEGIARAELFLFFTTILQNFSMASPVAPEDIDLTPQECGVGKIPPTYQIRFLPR

[4] = tested on: hippocampus glucose metabolism; conditions: previously tested in similar tests; cited from earlier work
CYP2C8 [5] = target: T4, CYP2C8 (Homo sapiens, UniProt P10632); conditions: cited from earlier work
T4 sequence (P10632 1-490): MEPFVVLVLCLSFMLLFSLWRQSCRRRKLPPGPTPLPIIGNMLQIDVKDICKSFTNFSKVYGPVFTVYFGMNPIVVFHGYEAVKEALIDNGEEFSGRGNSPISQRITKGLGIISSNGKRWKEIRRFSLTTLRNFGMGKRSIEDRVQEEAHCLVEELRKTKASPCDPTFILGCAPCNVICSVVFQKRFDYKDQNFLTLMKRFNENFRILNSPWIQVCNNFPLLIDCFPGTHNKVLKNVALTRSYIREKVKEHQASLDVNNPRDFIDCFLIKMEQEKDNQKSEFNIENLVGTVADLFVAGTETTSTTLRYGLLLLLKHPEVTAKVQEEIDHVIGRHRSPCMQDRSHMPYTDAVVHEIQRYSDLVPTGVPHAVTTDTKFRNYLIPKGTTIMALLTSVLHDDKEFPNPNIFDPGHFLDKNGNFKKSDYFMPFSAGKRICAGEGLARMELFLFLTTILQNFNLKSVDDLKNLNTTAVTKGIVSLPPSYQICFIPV

[6] = target: T5, ornithine aminotransferase (OAT) (Homo sapiens, UniProt P04181); conditions: cited from earlier work
T5 sequence (P04181 36-439 limits assumed): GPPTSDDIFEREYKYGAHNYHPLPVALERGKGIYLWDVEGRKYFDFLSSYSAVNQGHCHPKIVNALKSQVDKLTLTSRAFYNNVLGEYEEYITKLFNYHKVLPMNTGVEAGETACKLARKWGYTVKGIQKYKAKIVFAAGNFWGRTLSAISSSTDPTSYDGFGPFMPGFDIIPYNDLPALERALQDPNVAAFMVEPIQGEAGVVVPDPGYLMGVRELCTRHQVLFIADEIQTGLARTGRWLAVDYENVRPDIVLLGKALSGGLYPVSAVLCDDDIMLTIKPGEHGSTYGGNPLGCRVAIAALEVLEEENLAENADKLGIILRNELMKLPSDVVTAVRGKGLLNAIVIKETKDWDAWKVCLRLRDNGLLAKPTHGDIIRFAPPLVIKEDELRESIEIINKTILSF

CYP3A [7] = conditions: cited from earlier work
infantile spasms = conditions: cited from earlier work
CYP2D6 [8] = target: T6, CYP2D6 (Homo sapiens, UniProt P10635); conditions: cited from earlier work
T6 sequence (P10635 whole entry): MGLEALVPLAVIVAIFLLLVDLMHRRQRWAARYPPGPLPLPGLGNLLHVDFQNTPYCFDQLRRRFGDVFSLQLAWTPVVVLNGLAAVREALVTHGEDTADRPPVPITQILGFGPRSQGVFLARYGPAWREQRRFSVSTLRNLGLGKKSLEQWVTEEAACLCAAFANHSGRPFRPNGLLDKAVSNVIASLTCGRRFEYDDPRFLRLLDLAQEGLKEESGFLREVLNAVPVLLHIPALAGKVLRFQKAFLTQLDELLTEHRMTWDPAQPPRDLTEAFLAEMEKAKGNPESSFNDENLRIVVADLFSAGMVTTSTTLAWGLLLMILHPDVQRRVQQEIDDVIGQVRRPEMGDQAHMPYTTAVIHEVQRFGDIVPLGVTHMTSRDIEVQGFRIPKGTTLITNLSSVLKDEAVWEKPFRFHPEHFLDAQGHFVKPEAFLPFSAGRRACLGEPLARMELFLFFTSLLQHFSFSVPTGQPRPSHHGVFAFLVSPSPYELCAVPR

CYP2C19 [9] = target: T7, CYP2C19 (Homo sapiens, UniProt P33261); conditions: cited from earlier work
T7 sequence (P33261 whole entry): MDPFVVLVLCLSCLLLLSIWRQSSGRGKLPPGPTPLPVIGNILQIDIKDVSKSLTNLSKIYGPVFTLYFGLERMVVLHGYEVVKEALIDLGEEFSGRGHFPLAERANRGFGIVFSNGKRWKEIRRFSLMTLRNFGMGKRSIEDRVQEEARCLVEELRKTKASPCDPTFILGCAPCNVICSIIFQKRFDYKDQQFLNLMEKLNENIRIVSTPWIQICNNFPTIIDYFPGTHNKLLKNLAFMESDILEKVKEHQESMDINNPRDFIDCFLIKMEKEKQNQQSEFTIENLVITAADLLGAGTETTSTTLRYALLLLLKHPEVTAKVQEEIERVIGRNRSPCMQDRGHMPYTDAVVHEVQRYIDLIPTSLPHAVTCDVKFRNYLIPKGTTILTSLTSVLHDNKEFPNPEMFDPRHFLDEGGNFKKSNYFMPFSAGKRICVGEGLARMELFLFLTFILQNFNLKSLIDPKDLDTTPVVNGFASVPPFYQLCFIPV

CYP2C9 [10] = target: T8, CYP2C9 (Homo sapiens, UniProt P11712); conditions: cited from earlier work
T8 sequence (P11712 whole entry): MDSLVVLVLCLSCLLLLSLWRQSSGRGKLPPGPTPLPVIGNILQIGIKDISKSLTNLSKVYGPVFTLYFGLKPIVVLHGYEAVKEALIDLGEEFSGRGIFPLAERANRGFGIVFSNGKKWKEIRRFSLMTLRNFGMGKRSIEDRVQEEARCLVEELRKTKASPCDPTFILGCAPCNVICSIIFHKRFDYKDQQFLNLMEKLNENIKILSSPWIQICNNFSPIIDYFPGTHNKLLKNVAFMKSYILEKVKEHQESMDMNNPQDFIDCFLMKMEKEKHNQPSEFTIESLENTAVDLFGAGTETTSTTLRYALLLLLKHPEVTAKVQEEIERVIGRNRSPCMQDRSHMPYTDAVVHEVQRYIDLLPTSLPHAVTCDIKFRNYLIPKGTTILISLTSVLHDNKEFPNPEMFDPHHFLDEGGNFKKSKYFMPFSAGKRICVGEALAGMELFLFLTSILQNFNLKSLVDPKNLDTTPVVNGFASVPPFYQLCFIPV

hERG channel [11] = target: T9, hERG channel (Homo sapiens, UniProt Q12809); conditions: cited from earlier work
T9 sequence (Q12809 whole entry): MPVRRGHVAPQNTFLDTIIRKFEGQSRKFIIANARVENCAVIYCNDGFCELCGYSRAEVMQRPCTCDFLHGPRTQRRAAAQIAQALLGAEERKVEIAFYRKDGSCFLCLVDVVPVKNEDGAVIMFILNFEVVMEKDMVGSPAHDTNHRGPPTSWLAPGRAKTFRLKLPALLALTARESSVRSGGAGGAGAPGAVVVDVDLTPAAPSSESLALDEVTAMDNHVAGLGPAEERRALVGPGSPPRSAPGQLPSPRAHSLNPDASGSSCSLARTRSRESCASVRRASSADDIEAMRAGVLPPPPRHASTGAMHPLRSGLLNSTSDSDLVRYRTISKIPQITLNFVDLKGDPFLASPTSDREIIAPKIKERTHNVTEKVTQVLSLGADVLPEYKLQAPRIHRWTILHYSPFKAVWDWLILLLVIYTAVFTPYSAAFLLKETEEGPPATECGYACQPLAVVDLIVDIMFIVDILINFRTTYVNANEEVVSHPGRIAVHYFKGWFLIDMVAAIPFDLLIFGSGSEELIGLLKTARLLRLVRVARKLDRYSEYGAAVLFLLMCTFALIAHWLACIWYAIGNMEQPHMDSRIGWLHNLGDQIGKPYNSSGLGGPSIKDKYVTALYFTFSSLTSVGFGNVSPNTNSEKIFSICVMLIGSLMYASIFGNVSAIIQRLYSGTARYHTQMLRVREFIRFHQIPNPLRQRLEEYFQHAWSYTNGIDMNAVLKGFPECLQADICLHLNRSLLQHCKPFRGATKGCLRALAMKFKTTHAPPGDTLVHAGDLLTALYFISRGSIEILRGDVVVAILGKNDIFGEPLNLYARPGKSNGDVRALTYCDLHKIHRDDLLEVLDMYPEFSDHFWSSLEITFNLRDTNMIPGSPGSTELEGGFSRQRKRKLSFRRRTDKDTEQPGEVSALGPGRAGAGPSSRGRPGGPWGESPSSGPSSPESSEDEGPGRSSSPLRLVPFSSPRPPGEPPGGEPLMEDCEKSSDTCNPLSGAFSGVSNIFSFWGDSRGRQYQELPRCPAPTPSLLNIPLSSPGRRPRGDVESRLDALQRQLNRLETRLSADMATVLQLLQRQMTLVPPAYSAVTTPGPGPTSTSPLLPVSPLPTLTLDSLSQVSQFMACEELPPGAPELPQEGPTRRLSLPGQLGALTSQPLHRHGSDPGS

[12] = tested on: alanine aminotransferase (Ala-AT); conditions: cited from earlier work
[13] = tested on: cocaine- or nicotine-induced increases in synaptic dopamine (corpus striatum); assay type: in vivo, rat
[14] = after long-term administration; cited from earlier work
cocaine addiction = conditions: 9-week double-blind trial; cited from earlier work
Irwin = experiment: Irwin; design: species or system mice; conditions: mouse, in vivo, po
[15] = tested on: alanine aminotransferase (Ala-AT); experiment: Inhibition of alanine aminotransferase; assay type: biochemical
CYP2B6 [16] = target: T3, CYP2B6; experiment: CYP2B6 inhibition; assay type: in vitro ADME; conditions: 10 μM
CYP2C8 [17] = target: T4, CYP2C8; experiment: CYP2C8 inhibition; assay type: in vitro ADME; conditions: 10 μM
[18] = tested on: 176 pharmacological targets; experiment: Cerep SpectrumScreen; conditions: 3 μM
hERG channel [19] = target: T9, hERG channel; experiment: Inhibition of the hERG channel; assay type: cell-based; conditions: at 10 μM
CYP1A [20] = target: T1, CYP1A; experiment: CYP1A inhibition; assay type: in vitro ADME; conditions: 10 μM
[21] = Metabolic stability in human liver microsomes; assay type: in vitro ADME; conditions: 1 μM, 90 min assay time, 37 °, LC-MS/MS
[22] = Ames test for mutagenicity
CYP2C9 [23] = target: T8, CYP2C9; experiment: CYP2C9 inhibition; assay type: in vitro ADME; conditions: 10 μM
[24] = target: T2, aspartate aminotransferase (Asp-AT); experiment: Inhibition of aspartate aminotransferase; assay type: biochemical
CYP3A [25] = experiment: CYP3A inhibition; assay type: in vitro ADME, human; conditions: 10 μM
[26] = target: T5, ornithine aminotransferase (OAT); experiment: Time- and concentration-dependent inhibition of ornithine aminotransferase; assay type: biochemical
CYP2D6 [27] = target: T6, CYP2D6; experiment: CYP2D6 inhibition; assay type: in vitro ADME; conditions: 10 μM
CYP2C19 [28] = target: T7, CYP2C19; experiment: CYP2C19 inhibition; assay type: in vitro ADME; conditions: 10 μM
[29] = tested on: hippocampus glucose metabolism; experiment: microPET 18FDG, cocaine-induced increases in glucose metabolism; assay type: in vivo, rat; conditions: 5 before cocaine, statistical parametric mapping, p < 0.00001
[30] = 5 0.1 mg/kg prior to cocaine 10 mg/kg
[31] = 5 1.0 mg/kg prior to cocaine 10 mg/kg

In the case of `N[C@H]1C[C@@H](C(=O)O)CC1=C(F)F` [CPP-115, (1S,3S)-3-amino-4-difluoromethylenyl-1-cyclopentanoic acid], the “CYP inhibition or induction” value (CYP1A [1]) is listed as “does not inhibit or induce”, the “inactivation or inhibition of off-target enzyme” value [2] is listed as “not to inactivate or inhibit” and the “CYP inhibition or induction” value (CYP2B6 [3]) is listed as “does not inhibit or induce”. For the same compound, the “block of cocaine-induced hippocampal metabolism” value [4] was “did not completely block”, the “CYP inhibition or induction” value (CYP2C8 [5]) was “does not inhibit or induce” and the Ki [6] was 116 µM. For the same compound, the “CYP inhibition or induction” value (CYP3A [7]) was “does not inhibit or induce”, the “doses suppressing spasms, lower than those used for vigabatrin” value (infantile spasms) was “over 100 fold” and the “CYP inhibition or induction” value (CYP2D6 [8]) was “does not inhibit or induce”. The “CYP inhibition or induction” value (CYP2C19 [9]) was “does not inhibit or induce”, the “CYP inhibition or induction” value (CYP2C9 [10]) was “does not inhibit or induce” and the “inhibition of the activity of the hERG channel” value (hERG channel [11]) was “does not inhibit”. The “inactivation or inhibition of off-target enzyme” value [12] was “not to inactivate or inhibit”.

In the case of `COC(=O)[C@H]1[C@@H](OC(=O)c2ccccc2)C[C@@H]2CC[C@H]1N2C` [Cocaine, cocaine, reference compound], the “%= (Percent inhibition of cocaine-induced increase in synaptic dopamine)” value ([13]; cocaine 10 mg/kg alone) is reported as −36%, the ST-CB/CB ([13]; cocaine 10 mg/kg alone) is reported as 2.39 ± 0.21 and the “reduction of [11C]-raclopride binding” value ([13]; cocaine 10 mg/kg alone) is reported as 36%.

In the case of `C=CC(N)CCC(=O)O` (stereo not drawn) [vigabatrin], the “patients with permanent retinal damage” value [14] is listed as 25–40%, the “block of cocaine-induced hippocampal metabolism” value [4] is listed as “did not completely block” and the patients achieving abstinence (cocaine addiction) is listed as “up to 28%”.

In the case of `N[C@H]1C=C(C(=O)O)CC1=C(F)F` [Compound 5, (S)-3-amino-4-(difluoromethylenyl)cyclopent-1-ene-1-carboxylic acid], the NOAEL (Irwin) is reported as 6 mg/kg, the time-dependent inhibition [15] is reported as “does not cause time-dependent inhibition” and the IC50 ([15]; reversible inhibition) is reported as > 4000 µM. For the same compound, the “CYP inhibition or induction” value (CYP2B6 [16]) was “does not inhibit or induce”, the “CYP inhibition or induction” value (CYP2C8 [17]) was “does not inhibit or induce” and the “reduction of [11C]-raclopride binding” value ([13]; 5 0.01 mg/kg 30 minutes prior to cocaine) was 20%. The ST-CB/CB ([13]; 5 0.01 mg/kg 30 minutes prior to cocaine 10 mg/kg) was 3.01 ± 0.44, the “%= (Percent inhibition of cocaine-induced increase in synaptic dopamine)” value ([13]; 5 0.01 mg/kg prior to cocaine 10 mg/kg) was −20% and the “reduction of [11C]-raclopride binding” value ([13]; 5 0.1 mg/kg prior to cocaine) was 12%. The “%= (Percent inhibition of cocaine-induced increase in synaptic dopamine)” value [13, 30] was −12%, the ST-CB/CB [13, 30] was 3.31 ± 0.52 and the “change in [11C]-raclopride binding” value ([13]; 5 1.0 mg/kg prior to cocaine) was “no significant change”. The “%= (Percent inhibition of cocaine-induced increase in synaptic dopamine)” value [13, 31] was −5%, the ST-CB/CB [13, 31] was 3.56 ± 2.11 and the “reduction of [11C]-raclopride binding” value ([13]; 5 1.0 mg/kg prior to cocaine (comparable to control)) was 5%. The “change in [11C]-raclopride binding” value ([13]; 5 1.0 mg/kg prior to nicotine) was “no significant change”, the “activity at 176 pharmacological targets” value [18] was “no significant activity” and the “inhibition of the activity of the hERG channel” value (hERG channel [19]) was “does not inhibit”. For the same compound, the “CYP inhibition or induction” value (CYP1A [20]) was “does not inhibit or induce”, the “metabolism in human liver microsomes” value [21] was “No metabolism” and the “Ames test for mutagenicity” value [22] was “negative”. The “CYP inhibition or induction” value (CYP2C9 [23]) was “does not inhibit or induce”, the time-dependent inhibition [24] was “does not cause time-dependent inhibition” and the “CYP inhibition or induction” value (CYP3A [25]) was “does not inhibit or induce”. The “more effective at inhibiting GABA-AT than OAT” value ([26]; GABA-AT versus OAT) was 44 times, the “efficiency as an inactivator of OAT relative to CPP-115” value ([26]; ratio of kinact/KI) was 9.0 times and the “CYP inhibition or induction” value (CYP2D6 [27]) was “does not inhibit or induce”. The “CYP inhibition or induction” value (CYP2C19 [28]) was “does not inhibit or induce” and the “cocaine-induced activation in the hippocampus (18FDG uptake)” value [29] was “no activation in the hippocampus was detected”.
